Data on 8 compounds can be found in US20160298165A1 (priority 2013, published 2016).

The test system of one assay is M. tuberculosis H37Rv. The format is cell-based, Mycobacterium tuberculosis.
For assay [1], the system named is M. tuberculosis. The format is cell-based, Mycobacterium tuberculosis.
The test system of assay [2] is M. tuberculosis H37Rv ΔRD1 ΔpanCD. The format is cell-based. The note with it: cysteine 4 mM, 24 h.
The test system is the same in assay [3]. The class given is cell-based. The conditions noted are these: cysteine 4 mM, 24 h. The source holds these as a separate data set.
Assay [4] concerns M. tuberculosis. The class given is cell-based, Mycobacterium tuberculosis. This is another data set of the same source.
Assay [5] relates to M. tuberculosis mc26230 (H37Rv ΔRD1 ΔpanCD). The format is cell-based. The note with it: anaerobic chamber; 4 mM VC.
Assay [6] deals with M. tuberculosis. The format is cell-based, Mycobacterium tuberculosis. The source holds these as a separate data set.
Assay [7] relates to M. tuberculosis H37Rv ΔRD1 ΔpanCD. The format is cell-based. The conditions noted are these: treated for 3 days.

Turning to `OC(CS)C(O)CS` (stereo not drawn) [Dithio- threitol], the “sterilization of cultures when combined with INH” value in the assay on M. tuberculosis H37Rv is listed as “sterilized”.
Take `Cc1c(C)c2c(c(C)c1O)CC[C@@](C)(CCC[C@H](C)CCC[C@H](C)CCCC(C)C)O2` [VE, vitamin E, reference compound]: the “ROS level vs untreated samples” value in the assay with M. tuberculosis [1] is given as “lowered ROS level”.
Take `CC[C@@H](CO)NCCN[C@@H](CC)CO` [EMB, Ethambutol, reference compound]: the “decrease in CFU” value in the assay on M. tuberculosis H37Rv is “very slow decrease”.
`N[C@@H](CS)C(=O)O` [cysteine]: in the assay with M. tuberculosis H37Rv, the “decrease in CFUs” value amounted to 6 log, the “effect of cysteine on killing of M. tuberculosis by ETH” value is on record as “did not increase the killing” and the “growth of M. tuberculosis with cysteine alone” value is “not affected”. Further, in assay [2], the “levels of free thiols” value is reported as “lower”. Moreover, in assay [3], the “cystine concentration vs untreated sample” value came out at 100 times.
Consider Antimycin, for which the cidal activity result with M. tuberculosis [4] was “no cidal activity”.
Turning to `O=C1O[C@H]([C@@H](O)CO)C(O)=C1O` [VC, Vitamin C], in the assay on M. tuberculosis [1], the “increase in total ROS” value is on record as “Up to threefold” and the “total ROS concentration relative to the untreated sample” value is given as “did not substantially alter”. Further, in assay [5], the “effect on M. tuberculosis viability” value was “no effect”. In the assay with M. tuberculosis [6], the “cells with DNA breaks relative to untreated culture or culture treated with VE” value is “tenfold higher” and the “percentage of cells with DNA breaks” value is reported as 17-25%.
With `NNC(=O)c1ccncc1` [INH, Isoniazid], the “decrease in CFUs” value with M. tuberculosis H37Rv is reported as 3-4 log. The “intracellular levels of ferrous ions vs untreated sample” value in assay [7] is “very high”.
`Cc1ccc2ccc3ccc(C)nc3c2n1` [neocuproine, reference compound]: in the assay with M. tuberculosis H37Rv, the “decrease in CFUs” value was 5 log and the “growth of M. tuberculosis with neocuproine alone” value is on record as “no impact on the growth”.
